The test system of test [1] is human monocytic cell line U937. Description: Human U937 cellular necroptosis assay (TNFalpha + z-VAD-FMK, Cell Titer-Glo viability). Particulars: Homo sapiens, U-937, 22 h, U937 cells, 25 ng/mL human TNFalpha + 25 μM z-VAD-FMK, read-out: hU937 Avg IC50. The class given is cell-based. In outline: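 Readout is CellTiter-Glo 2.0 luminescence after 22 h at 37° C with compound, in cells triggered by human TNFalpha (25 ng/mL) and z-VAD-FMK (25 μM) in phenol red-free RPMI/10% FBS. Values are run-averaged IC50s from a four-parameter logistic curve.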

A further test addresses RIPK1 (Homo sapiens (Human), UniProt Q13546). Description: ADP-Glo kinase assay (RIPK1 activity, conversion of ATP to ADP). The class given is biochemical. To be noted: for pIC50: 5 nM RIPK1, 50 μM ATP, 6 h reaction, read-out: RIPK1 Enzyme Avg IC50. In outline: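 RIPK1 (5 nM final) was preincubated 10 min at rt with 1:3-diluted compounds in HEPES pH 7.5/MgCl2/DTT/BSA/CHAPS buffer. ATP (50 μM final) was then added for 6 h, and ADP formed was read by ADP-Glo luminescence. IC50 values came from four-parameter logistic fitting.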

Data on 19 compounds can be found in patent US20250214942A1, “INHIBITORS OF RECEPTOR INTERACTING PROTEIN KINASE I FOR THE TREATMENT OF DISEASE” (Board of Regents, The University of Texas System, priority 2019, published 2025).

SMILES strings stand for the structures. pIC50: −log10 of the molar value.

Sequence of RIPK1 (Q13546 1-327): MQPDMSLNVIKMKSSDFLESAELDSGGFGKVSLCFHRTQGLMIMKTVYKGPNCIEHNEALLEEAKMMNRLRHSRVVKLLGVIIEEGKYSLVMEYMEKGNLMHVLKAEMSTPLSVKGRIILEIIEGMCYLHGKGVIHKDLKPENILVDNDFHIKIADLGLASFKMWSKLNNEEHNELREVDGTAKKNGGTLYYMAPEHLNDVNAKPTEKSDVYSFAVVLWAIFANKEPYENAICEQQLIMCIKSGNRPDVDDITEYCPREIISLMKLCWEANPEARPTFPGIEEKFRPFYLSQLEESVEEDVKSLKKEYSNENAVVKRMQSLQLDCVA

With `Cc1cc(F)c([C@H]2CC=NN2C(=O)C23CC(COc4cnc(C#N)cn4)(C2)C3)cc1F` [Example 196, (R)-5-((3-(5-(2,5-difluoro-4-methylphenyl)-4,5-dihydro-1H-pyrazole-1-carbonyl)bicyclo[1.1.1]pentan-1-yl)methoxy)pyrazine-2-carbonitrile], in test [1], the negative logarithm of the IC50 (pIC50) was 6.20. Further, the “observed potency relative to the other enantiomer” value on RIPK1 (enantiomers separated by SFC, assay not named) was “less potent isomer”.

For the compound `O=C(N1N=CCC1c1cc(F)cc(F)c1)C12CC(COc3cc(F)ccc3F)(C1)C2` (centres unmarked) [Example 338, (3-((2,5-difluorophenoxy)-methyl)bicyclo[1.1.1]pentan-1-yl)(5-(3,5-difluorophenyl)-4,5-dihydro-1H-pyrazol-1-yl)methanone], the pIC50 in test [1] is 6.78; on RIPK1, 7.59.

In the case of `O=C(N1N=CCC1c1cc(F)cc(F)c1)C12CC(Cn3ncc4cncc(Cl)c43)(C1)C2` (centres unmarked) [Example 68, (3-((7-chloro-1H-pyrazolo-[4,3-c]pyridin-1-yl)methyl)-bicyclo[1.1.1]pentan-1-yl)(5-(3,5-difluorophenyl)-4,5-dihydro-1H-pyrazol-1-yl)methanone], the pIC50 in test [1] was 7.47; at RIPK1 it was 7.70.

`O=C(N1N=CCC1c1cc(F)cc(F)c1)C12CC(COc3cc(Br)ncn3)(C1)C2` (centres unmarked) [Example 6, (3-(((6-Bromopyrimidin-4-yl)oxy)methyl)bicyclo[1.1.1]pentan-1-yl)(5-(3,5-difluorophenyl)-4,5-dihydro-1H-pyrazol-1-yl)methanone]: the results for the pIC50 (in test [1]; on RIPK1) were 7.70 and 7.64, respectively.

For `O=C(N1N=CCC1c1cc(F)cc(F)c1)C12CC(COc3ncc(F)cn3)(C1)C2` (centres unmarked) [Example 325, (5-(3,5-difluorophenyl)-4,5-dihydro-1H-pyrazol-1-yl)(3-(((5-fluoropyrimidin-2-yl)-oxy)methyl)bicyclo[1.1.1]-pentan-1-yl)methanone], the values for the pIC50 (in test [1]; at RIPK1) were 6.71 and 7.68, respectively.

On to `Cn1c(=O)n(CC23CC(C(=O)N4N=CCC4c4cc(F)cc(F)c4)(C2)C3)c2ccccc21` (centres unmarked) [Example 110, 1-((3-(5-(3,5-difluorophenyl)-4,5-dihydro-1H-pyrazole-1-carbonyl)bicyclo[1.1.1]-pentan-1-yl)methyl)-3-methyl-1,3-dihydro-2H-benzo[d]imidazol-2-one], for which the pIC50 was 6.13 in test [1] and 6.87 on RIPK1.

In the case of `O=C(N1N=CCC1c1cc(F)cc(F)c1)C12CC(Cn3ncc4cc(F)ccc43)(C1)C2` (centres unmarked) [Example 4, (5-(3,5-Difluorophenyl)-4,5-dihydro-1H-pyrazol-1-yl)(3-((5-fluoro-1H-indazol-1-yl)methyl)bicyclo[1.1.1]pentan-1-yl)methanone], the figures for the pIC50 (in test [1]; at RIPK1) were 8.05 and 7.72, respectively.

As to `O=C(N1N=CCC1c1cc(F)cc(F)c1)C12CC(COc3ccc(F)cc3Cl)(C1)C2` (centres unmarked) [Example 334, (3-((2-chloro-4-fluoro-phenoxy)methyl)bicyclo-[1.1.1]pentan-1-yl)(5-(3,5-difluorophenyl)-4,5-dihydro-1H-pyrazol-1-yl)methanone], the pIC50 in test [1] was 7.35; at RIPK1 it was 7.74.

On to `N#Cc1cn(CC23CC(C(=O)N4N=CCC4c4cc(F)cc(F)c4)(C2)C3)nn1` (centres unmarked) [Example 163, 1-((3-(5-(3,5-difluorophenyl)-4,5-dihydro-1H-pyrazole-1-carbonyl)bicyclo[1.1.1]-pentan-1-yl)methyl)-1H-1,2,3-triazole-4-carbonitrile], for which the pIC50 in test [1] is 6.14; at RIPK1 it was 6.94.

Regarding `N#Cc1ccc2c(cnn2CC23CC(C(=O)N4CCC4c4ccccc4)(C2)C3)c1` (centres unmarked) [Example 177, 1-((3-(2-phenylazetidine-1-carbonyl)bicyclo[1.1.1]-pentan-1-yl)methyl)-1H-indazole-5-carbonitrile], the values for the pIC50 (in test [1]; at RIPK1) were 6.27 and 7.27, respectively.

As to `N#Cc1cc(OCC23CC(C(=O)N4CC(F)CC4c4cccc(F)c4)(C2)C3)ncn1` (centres unmarked) [Example 92, 6-((3-(4-fluoro-2-(3-fluorophenyl)pyrrolidine-1-carbonyl)bicyclo[1.1.1]-pentan-1-yl)methoxy)-pyrimidine-4-carbonitrile], the pIC50 in test [1] is 6.29; on RIPK1 it was 7.25.

Turning to `O=C(N1CC(F)CC1c1cccc(F)c1)C12CC(Cn3ncc4cc(F)ccc43)(C1)C2` (centres unmarked) [Example 27, (3-((5-Fluoro-1H-indazol-1-yl)methyl)bicyclo[1.1.1]pentan-1-yl)(4-fluoro-2-(3-fluorophenyl)pyrrolidin-1-yl)methanone], the pIC50 in test [1] was 6.78; at RIPK1, 7.85.

Consider `O=C(N1N=CCC1c1cc(F)cc(F)c1)C12CC(Cn3cc(C4CC4)nn3)(C1)C2` (centres unmarked) [Example 159, (3-((4-cyclopropyl-1H-1,2,3-triazol-1-yl)methyl)bicyclo-[1.1.1]pentan-1-yl)(5-(3,5-difluorophenyl)-4,5-dihydro-1H-pyrazol-1-yl)methanone], for which the negative logarithm of the IC50 (pIC50) in test [1] is 5.44; on RIPK1, 5.95.

`Cc1cn(CC23CC(C(=O)N4N=CCC4c4cc(F)cc(F)c4)(C2)C3)nc1C#N` (centres unmarked) [Example 157, 1-((3-(5-(3,5-difluorophenyl)-4,5-dihydro-1H-pyrazole-1-carbonyl)bicyclo[1.1.1]-pentan-1-yl)methyl)-4-methyl-1H-pyrazole-3-carbonitrile]: the pIC50 in test [1] is 6.77; at RIPK1, 7.38.

Take `N#Cc1cc(OCC23CC(C(=O)N4N=CCC4c4cc(F)cc(F)c4)(C2)C3)ncn1` (centres unmarked) [Example 9, 6-((3-(5-(3,5-Difluorophenyl)-4,5-dihydro-1H-pyrazole-1-carbonyl)bicyclo[1.1.1]pentan-1-yl)methoxy)pyrimidine-4-carbonitrile]: the pIC50 in test [1] is 7.21; at RIPK1, 7.80.

As for `O=C(N1N=CCC1c1ccccc1)C12CC(Cn3ncc4c(F)cccc43)(C1)C2` (centres unmarked) [Example 81, (3-((4-fluoro-1H-indazol-1-yl)methyl)bicyclo[1.1.1]-pentan-1-yl)(5-phenyl-4,5-dihydro-1H-pyrazol-1-yl)-methanone], the pIC50 in test [1] is 7.92; at RIPK1, 7.96.

As to `O=C(N1N=CCC1c1cc(F)cc(F)c1)C12CC(Cn3cc4c(n3)CCC4)(C1)C2` (centres unmarked) [Example 144, (5-(3,5-difluorophenyl)-4,5-dihydro-1H-pyrazol-1-yl)(3-((5,6-dihydrocyclopenta[c]-pyrazol-2(4H)-yl)methyl)-bicyclo[1.1.1]pentan-1-yl)methanone], the pIC50 in test [1] was 5.93; at RIPK1 it was 6.84.

On to `N#Cc1ncn(CC23CC(C(=O)N4N=CCC4c4cc(F)cc(F)c4)(C2)C3)n1` (centres unmarked) [Example 178, 1-((3-(5-(3,5-difluorophenyl)-4.5-dihydro-1H-pyrazole-1-carbonyl)bicyclo[1.1.1]-pentan-1-yl)methyl)-1H-1,2,4-triazole-3-carbonitrile], for which the pIC50 is 6.64 in test [1] and 6.99 on RIPK1.

For `N#Cc1ccc2c(cnn2CC23CC(C(=O)N4N=CCC4c4ccccc4)(C2)C3)c1` (centres unmarked) [Example 52, 1-((3-(5-phenyl-4,5-dihydro-1H-pyrazole-1-carbonyl)-bicyclo[1.1.1]pentan-1-yl)methyl)-1H-indazole-5-carbonitrile], the results for the pIC50 (in test [1]; at RIPK1) were 7.80 and 7.62, respectively.

One may read the pIC50 as the negative decadic logarithm of the IC50, by convention in mol/L.
